Among the data in patent US20260325540A1 (priority 2023, published 2026) are IC50 values, retold here.

pIC50: −log10 of the molar value. Some results are limits rather than exact numbers.

Experiment [1] concerns the target MERS-CoV 3CLpro (Middle East respiratory syndrome-related coronavirus, UniProt K9N638). The experiment in a line: biochemical. The note with it: MERS IC50, 75 nM MERS-CoV 3CLpro, 6 μM peptide 1 substrate, 25° C., 1.5 hrs, pH 7.5.
In experiment [2] the target is SARS-CoV-2 3CLpro (Severe acute respiratory syndrome coronavirus 2, UniProt P0DTD1). The experiment in a line: FRET based protease assay, SARS-CoV-2 3CL. The format is biochemical, SARS-CoV-2 (strain BetaCoV/Wuhan/WIV04/2019).

Chain of MERS-CoV 3CLpro (K9N638 3248-3553 limits assumed): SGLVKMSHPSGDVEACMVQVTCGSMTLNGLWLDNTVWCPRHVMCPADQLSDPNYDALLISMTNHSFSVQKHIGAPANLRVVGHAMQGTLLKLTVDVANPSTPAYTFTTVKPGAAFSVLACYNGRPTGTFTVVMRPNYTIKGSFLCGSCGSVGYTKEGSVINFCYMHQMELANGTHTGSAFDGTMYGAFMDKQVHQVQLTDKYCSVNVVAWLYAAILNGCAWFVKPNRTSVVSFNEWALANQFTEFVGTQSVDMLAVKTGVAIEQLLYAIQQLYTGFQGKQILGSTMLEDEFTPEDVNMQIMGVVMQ

As for `CC1(C)[C@@H]2[C@H]3C(=O)N[C@H](C#N)C[C@@H]4C(=O)NC[C@@H]4CCCC[C@H](NC(=O)C4CCOCC4)C(=O)N3C[C@@H]21` [Example 85], the negative logarithm of the IC50 (pIC50) in experiment [1] and in experiment [2] was more than 7.00 throughout.

Consider `CC(C)(C)C(=O)N[C@H]1CC/C=C/[C@H]2CNC(=O)[C@H]2C[C@@H](C#N)NC(=O)[C@@H]2[C@H]3CCC[C@H]3CN2C1=O` [Example 86], for which the pIC50 was 6.00 to 7.00 in experiment [1] and more than 7.00 in experiment [2].

On to `CC1(C)[C@@H]2[C@H]3C(=O)N[C@H](C#N)C[C@@H]4C(=O)NC[C@@H]4CCCC[C@H](NC(=O)C(F)(F)F)C(=O)N3C[C@@H]21` [Example 87], for which the pIC50 in experiment [1] and in experiment [2] was more than 7.00 each time.

As to `N#C[C@@H]1C[C@@H]2C(=O)NC[C@@H]2CCCC[C@H](NC(=O)C(F)(F)F)C(=O)N2C[C@@H]3CCC[C@@H]3[C@H]2C(=O)N1` [Example 88], the pIC50 in experiment [1] was 6.00 to 7.00; in experiment [2], more than 7.00.

In the case of `CC1(C)[C@@H]2[C@H]3C(=O)N[C@H](C#N)C[C@@H]4C(=O)NC[C@@H]4CCCC[C@H](NC(=O)CC4CC(F)(F)C4)C(=O)N3C[C@@H]21` [Example 89], the pIC50 in experiment [1] was 6.00 to 7.00; in experiment [2] it was more than 7.00.

`CC1(C)[C@@H]2[C@H]3C(=O)N[C@H](C#N)C[C@@H]4C(=O)NC[C@@H]4CCCC[C@H](NC(=O)CC4CCCC4)C(=O)N3C[C@@H]21` [Example 90]: the pIC50 was 6.00 to 7.00 in experiment [1] and more than 7.00 in experiment [2].

`CC1(C)[C@@H]2[C@H]3C(=O)N[C@H](C#N)C[C@@H]4C(=O)NC[C@@H]4CCCC[C@H](NC(=O)c4ccncn4)C(=O)N3C[C@@H]21` [Example 91]: the pIC50 in experiment [1] and in experiment [2] was more than 7.00 each time.

On to `CC(C)(C)OC(=O)N[C@H]1CC/C=C/[C@H]2CNC(=O)[C@H]2C[C@@H](C#N)NC(=O)[C@@H]2[C@@H]3[C@H](CN2C1=O)C3(C)C` [Example 92], for which the pIC50 in experiment [1] and in experiment [2] was more than 7.00 each time.

As to `N#C[C@@H]1C[C@@H]2C(=O)NCC[C@@H]2CCCC[C@H](NC(=O)OC2CCCC2)C(=O)N2C[C@@H]3CCC[C@@H]3[C@H]2C(=O)N1` [Example 93], the pIC50 is 6.00 to 7.00 in experiment [1] and more than 7.00 in experiment [2].

On to `N#C[C@@H]1C[C@@H]2C(=O)NC[C@@H]2CCCC[C@H](NC(=O)OC2CCCC2)C(=O)N2C[C@@H]3CCC[C@@H]3[C@H]2C(=O)N1` [Example 94], for which the pIC50 in experiment [1] and in experiment [2] was more than 7.00 throughout.

As for `CC(C)(C)CC(=O)N[C@H]1CCCC[C@H]2CCNC(=O)[C@H]2C[C@@H](C#N)NC(=O)[C@@H]2[C@H]3CCC[C@H]3CN2C1=O` [Example 95], the values for the pIC50 in experiment [1] and in experiment [2] were 6.00 to 7.00 and more than 7.00, respectively.

With `CC(C)(C)OC(=O)N[C@H]1CC/C=C\[C@H]2CCNC(=O)[C@H]2CC(C#N)NC(=O)[C@@H]2[C@H]3CCC[C@H]3CN2C1=O` (stereo partly shown) [Example 97], the pIC50 in experiment [1] is 6.00 to 7.00; in experiment [2] it was more than 7.00.

`CC(C)(C)OC(=O)N[C@H]1CCCC[C@H]2CCNC(=O)C2C[C@@H](C#N)NC(=O)[C@@H]2[C@H]3CCC[C@H]3CN2C1=O` (stereo partly shown) [Example 98]: the pIC50 in experiment [1] and in experiment [2] was 6.00 to 7.00 throughout.

Turning to `CC(C)(C)OC(=O)N[C@H]1CC/C=C/[C@H]2CCNC(=O)[C@H]2C[C@@H](C#N)NC(=O)[C@@H]2[C@H]3CCC[C@H]3CN2C1=O` [Example 99], the pIC50 in experiment [1] was 4.70 to 6.00; in experiment [2], 6.00 to 7.00.

Take `CC(C)(C)OC(=O)N[C@H]1CCC[C@H]2CCNC(=O)[C@H]2C[C@@H](C#N)NC(=O)[C@@H]2[C@H]3CCC[C@H]3CN2C1=O` [Example 100]: the pIC50 in experiment [1] and in experiment [2] was 4.70 to 6.00 throughout.

Consider `N#C[C@@H]1C[C@@H]2C(=O)NC[C@@H]2/C=C/CC[C@H](NC(=O)C(F)(F)F)C(=O)N2C[C@@H]3CCC[C@@H]3[C@H]2C(=O)N1` [Example 101], for which the negative logarithm of the IC50 (pIC50) in experiment [1] was 6.00 to 7.00; in experiment [2], more than 7.00.

Regarding `CC(C)(C)OC(=O)N[C@H]1COCCC[C@H]2CNC(=O)[C@H]2C[C@@H](C#N)NC(=O)[C@@H]2[C@@H]3[C@H](CN2C1=O)C3(C)C` [Example 102], the figures for the pIC50 in experiment [1] and in experiment [2] were 6.00 to 7.00 and more than 7.00, respectively.

Consider `CC1(C)[C@@H]2[C@H]3C(=O)N[C@H](C#N)C[C@@H]4C(=O)NC[C@@H]4CCCC[C@H](NC(=O)c4ccc(F)cc4F)C(=O)N3C[C@@H]21` [Example 103], for which the pIC50 in experiment [1] and in experiment [2] was more than 7.00 each time.

As to `CC1(C)[C@@H]2[C@H]3C(=O)N[C@H](C#N)C[C@@H]4C(=O)NCC[C@@H]4CCCC[C@H](NC(=O)C(F)(F)F)C(=O)N3C[C@@H]21` [Example 104], the pIC50 in experiment [1] and in experiment [2] was more than 7.00 each time.

For the molecule `CC(C)(C)OC(=O)N[C@H]1CCCC[C@H]2CNC(=O)[C@H]2C[C@@H](C#N)NC(=O)[C@@H]2CC3(CC3)CN2C1=O` [Example 105], the pIC50 in experiment [1] and in experiment [2] was 6.00 to 7.00 throughout.

`CC(C)(C)COC(=O)N[C@H]1CCCC[C@H]2CNC(=O)[C@H]2C[C@@H](C#N)NC(=O)[C@@H]2[C@@H]3[C@H](CN2C1=O)C3(C)C` [Example 106]: the negative logarithm of the IC50 (pIC50) in experiment [1] was 6.00 to 7.00; in experiment [2] it was more than 7.00.

For the molecule `CC1(C)[C@@H]2[C@H]3C(=O)N[C@H](C#N)C[C@@H]4C(=O)NC[C@@H]4CCCC[C@H](NC(=O)c4cncnc4)C(=O)N3C[C@@H]21` [Example 107], the negative-log IC50 (pIC50) in experiment [1] and in experiment [2] was more than 7.00 each time.

As to `CC1(C)[C@@H]2[C@H]3C(=O)N[C@H](C#N)C[C@@H]4C(=O)NC[C@@H]4/C=C/CC[C@H](NC(=O)C(F)(F)F)C(=O)N3C[C@@H]21` [Example 108], the negative logarithm of the IC50 (pIC50) in experiment [1] and in experiment [2] was more than 7.00 each time.

For `Cc1cc(C(=O)N[C@H]2CCCC[C@H]3CNC(=O)[C@H]3C[C@@H](C#N)NC(=O)[C@@H]3[C@@H]4[C@H](CN3C2=O)C4(C)C)on1` [Example 109], the negative-log IC50 (pIC50) in experiment [1] and in experiment [2] was more than 7.00 in each case.

Take `CC(C)(C)OC(=O)N[C@H]1CCCC[C@H]2CCNC(=O)[C@H]2C[C@@H](C#N)NC(=O)[C@@H]2[C@@H]3[C@H](CN2C1=O)C3(C)C` [Example 110]: the pIC50 was 6.00 to 7.00 in experiment [1] and more than 7.00 in experiment [2].

As to `CC(C)(C)OC(=O)N[C@H]1CCCC[C@H]2CNC(=O)[C@H]2C[C@@H](C#N)NC(=O)[C@@H]2[C@H]3CC[C@H](CC3)N2C1=O` [Example 111], the pIC50 in experiment [1] and in experiment [2] was 6.00 to 7.00 in each case.

In the case of `CC(C)(C)OC(=O)N[C@H]1CC/C=C/[C@H]2CNC(=O)[C@H]2C[C@@H](C#N)NC(=O)[C@@H]2[C@H]3CCC[C@H]3CN2C1=O` [Example 112], the negative-log IC50 (pIC50) in experiment [1] was 6.00 to 7.00; in experiment [2], more than 7.00.

`Cc1nc(C(=O)N[C@H]2CCCC[C@H]3CNC(=O)[C@H]3C[C@@H](C#N)NC(=O)[C@@H]3[C@@H]4[C@H](CN3C2=O)C4(C)C)cs1` [Example 113]: the values for the pIC50 in experiment [1] and in experiment [2] were more than 7.00 and 6.00 to 7.00, respectively.

Regarding `CC(C)(C)OC(=O)N[C@H]1CC/C=C\[C@H]2CCNC(=O)[C@H]2C[C@@H](C#N)NC(=O)[C@@H]2[C@@H]3[C@H](CN2C1=O)C3(C)C` [Example 114], the results for the negative-log IC50 (pIC50) in experiment [1] and in experiment [2] were 6.00 to 7.00 and more than 7.00, respectively.

For `Cc1nc(C(=O)N[C@H]2CCCC[C@H]3CNC(=O)[C@H]3C[C@@H](C#N)NC(=O)[C@@H]3[C@@H]4[C@H](CN3C2=O)C4(C)C)co1` [Example 115], the pIC50 in experiment [1] and in experiment [2] was more than 7.00 each time.

On to `CC1(C)[C@@H]2[C@H]3C(=O)N[C@H](C#N)C[C@@H]4C(=O)NC[C@@H]4CCCC[C@H](NC(=O)c4ccc(F)c(C(F)(F)F)c4)C(=O)N3C[C@@H]21` [Example 116], for which the pIC50 in experiment [1] and in experiment [2] was more than 7.00 throughout.

In the case of `CC1(C)[C@@H]2[C@H]3C(=O)N[C@H](C#N)C[C@@H]4C(=O)NC[C@@H]4CCCC[C@H](NC(=O)C4(C(F)(F)F)CC4)C(=O)N3C[C@@H]21` [Example 117], the pIC50 in experiment [1] and in experiment [2] was more than 7.00 throughout.

In the case of `CC1(C(=O)N[C@H]2CCCC[C@H]3CNC(=O)[C@H]3C[C@@H](C#N)NC(=O)[C@@H]3[C@@H]4[C@H](CN3C2=O)C4(C)C)CCC1` [Example 118], the figures for the pIC50 in experiment [1] and in experiment [2] were 6.00 to 7.00 and more than 7.00, respectively.

As for `CC1(C)[C@@H]2[C@H]3C(=O)N[C@H](C#N)C[C@@H]4C(=O)NC[C@@H]4CCCC[C@H](NC(=O)C45CC(C(F)(F)F)(C4)C5)C(=O)N3C[C@@H]21` [Example 119], the pIC50 in experiment [1] and in experiment [2] was more than 7.00 throughout.

For `CC1(C)[C@@H]2[C@H]3C(=O)N[C@H](C#N)C[C@@H]4C(=O)NC[C@@H]4CCCC[C@H](NC(=O)c4ccc(Cl)c(Cl)c4)C(=O)N3C[C@@H]21` [Example 120], the pIC50 in experiment [1] and in experiment [2] was more than 7.00 each time.

For the molecule `CC(C)(C(=O)N[C@H]1CCCC[C@H]2CNC(=O)[C@H]2C[C@@H](C#N)NC(=O)[C@@H]2[C@@H]3[C@H](CN2C1=O)C3(C)C)c1ccc(Cl)cc1` [Example 121], the figures for the pIC50 in experiment [1] and in experiment [2] were 6.00 to 7.00 and more than 7.00, respectively.

For the molecule `Cc1cc(C(=O)N[C@H]2CCCC[C@H]3CNC(=O)[C@H]3C[C@@H](C#N)NC(=O)[C@@H]3[C@@H]4[C@H](CN3C2=O)C4(C)C)no1` [Example 122], the pIC50 in experiment [1] and in experiment [2] was more than 7.00 each time.

`CC1(C(=O)N[C@H]2CCCC[C@H]3CNC(=O)[C@H]3C[C@@H](C#N)NC(=O)[C@@H]3[C@@H]4[C@H](CN3C2=O)C4(C)C)COC1` [Example 123]: the pIC50 in experiment [1] is 6.00 to 7.00; in experiment [2], more than 7.00.

With `CC1(C)[C@@H]2[C@H]3C(=O)N[C@H](C#N)C[C@@H]4C(=O)NCC[C@@H]4CCCC[C@H](NC(=O)OC4CCCC4)C(=O)N3C[C@@H]21` [Example 124], the pIC50 in experiment [1] and in experiment [2] was more than 7.00 in each case.

Regarding `CC(C)(C)OC(=O)N[C@H]1CCC[C@H]2CNC(=O)[C@H]2C[C@@H](C#N)NC(=O)[C@@H]2[C@@H]3[C@H](CN2C(=O)C1)C3(C)C` [Example 125], the pIC50 in experiment [1] was less than 4.70; in experiment [2], 4.70 to 6.00.

With `CC(C)(C)OC(=O)N[C@@]1(C)CCCCC[C@H]2CNC(=O)[C@H]2C[C@@H](C#N)NC(=O)[C@@H]2[C@@H]3[C@H](CN2C1=O)C3(C)C` [Example 126], the pIC50 in experiment [1] and in experiment [2] was less than 4.70 each time.
